In patent US20240294495A1, “COMPOUNDS THAT MEDIATE PROTEIN DEGRADATION AND METHODS OF USE THEREOF” (Monte Rosa Therapeutics, Inc., priority 2021, published 2024):

Columns and labels:
CRBN-DDB1 = CRBN-DDB1 (Homo sapiens, UniProt Q96SW2); experiment: Compound binding to CRBN by HTRF assay; conditions: CRBN-DDB1 2.5 nM, Cy5-Thalidomide 100 nM probe, 30 min incubation; read-out: HTRF Class (Cereblon binding, HTRF IC50)
Description: Compound activity was monitored in a Homogenous Time-Resolved Fluorescence (HTRF) assay using 1-[5-({2-[2-(2-{[2-(2,6-dioxopiperidin-3-yl)-1,3-dioxo-2,3-dihydro-1H-isoindol-4-yl]oxy}acetamido)ethoxy]ethyl}carbamoyl)pentyl]-3,3-dimethyl-2-[(1E,3E)-5-[(2E)-1,3,3-trimethyl-5-sulfo-2,3-dihydro-1H-indol-2-ylidene]penta-1,3-dien-1-yl]-3H-indol-1-ium-5-sulfonate as a fluorescent probe. Biochemical assays were conducted in Greiner white 384 well HiBase plates (Cat. No 784075-25) in 10 μL total volume. A one pot detection solution of CRBN-DDB1 (2.5 nM), Anti-His Terbium Cryptate Gold (1×, PerkinElmer Cat. #: 61HI2TLB), and Cy5-Thalidomide (100 nM, Tenova Cat.: T52461) was prepared in 20 mM HEPES, 20 mM NaCl, 0.2 mM TCEP, 0.2 mM EDTA, and 0.005% Tween20 was dispensed to each assay plate. Compounds were stored in dry, ambient temperatures at 10 mM. A 10-point, 1:3 dilution series was prepared from 10 mM stock concentrations in Echo-compatible LDV plates. 10 nL of each compound dilution series was dispensed into assays wells using an Echo 650 (Labcyte inc. USA). 10 nL of 10 mM Lenalidomide was transferred into the active-control wells for the assay and 10 nL of DMSO was transferred into the neutral-control wells. The assay was then allowed to incubate for 30 min at ambient temperature after transferring compound. Plate measurements were taken on a Pherastar FSX (BMG Labtech, Germany) using the HTRF Red filter (Ex. 337 nm, em1: 620 nm, em2: 665 nm) (Flashes: 50, Integration time: 60-400 us, Z-height: 10 mm, Ratio-multiplier: 10,000). The HTRF signal was then subsequently normalized to the neutral and active controls. Analysis and IC50 values were derived using KNIME analytics (KNIME Zurich) transformation and fitting within Collaborative Drug Discovery (Collaborative Drug Discovery USA). Ki was derived from the geometric mean of the IC50 values using the Cheng-Prustoff transformation.
(§1) In Table 2, each compound is assigned a class (HTRF class) indicating the ability for Cereblon binding by means of their HTRF IC50 values according to Example 3: A, B or C. According to the code, A represents an IC50 value of <100 nM, B represents an IC50 value>100 nM and <1000 nM, C represents an IC50 value>1000 nM. IF Class assigns each compound a code indicating the ability for GSPT1 degradation: A, B or C. According to the code, A represents a DC50 value of <30 nM, B represents a DC50 value>30 nM and <300 nM and C represents a DC50 value of >300 nM.

GSPT1 = molecular target: T1, GSPT1 (Homo sapiens, UniProt P15170+Q96SW2); experiment: Immunofluorescence assay for GSPT1 degradation in CAL-51 cells; type: cell-based; conditions: 6 h treatment, read-out: IF Class (GSPT1 degradation, DC50)
T1 construct: CAL-51 cells were purchased from DSMZ (cat. Number ACC302); endogenous in cells; host or cells: CAL-51 (DSMZ ACC302)
Description: The representative compounds were tested in an immunofluorescence assay for their activity to degrade GSPT1. CAL-51 cells were purchased from DSMZ (cat. Number ACC302), sub-cultured in 90% Dulbecco's MEM (4.5 g/L glucose, Gibco 11965)+10% heat inactivated FBS (BioConcept, 2-01F136I) and incubated at 37° C., 5% CO2. For the assay imaging microtiter plate Cell Carrier 96 Ultra (Perkin Elmer 6055302) were pre-coated with Fibronectin (Sigma F085, 30 μl at 0.2 μg/mL) in PBS (100 μL, Gibco 14190) for 45 min at room temperature, rinsed with PBS and CAL-51 cells (30K cells/well) were plated and let to adhere overnight. Cells were treated with compounds typically using a serial dilution ranging from 30 μM to 0.1 nM for 6 h. Compounds were stored at 10 mM DMSO stocks. Vehicle (DMSO), positive (CC-885, 10 μM) and rescue controls (positive control plus 0.2 μM bortezomib) were also included at this stage. Cells were subsequently rinsed with PBS and fixed in 10% Formalin solution (50 μl, Sigma HT5011)) for 20 min at room temperature. Following three consecutive PBS washes (100 μL), cells were permeabilized in 0.1% Triton X-100 in PBS (Sigma 93443, 50 μl) for 15 min at room temperature. Following three further PBS washes, 50 μl blocking buffer (1% BSA, Sigma A4503, in PBS) was added for 45 min for signal-to noise reduction. Primary antibody (human GSPT1, Sigma HPA052488) was diluted in blocking buffer (dil.1/300, 35 μL/well) and incubated with the cells overnight at 4° C. After three PBS washes, Alexa-fluor 488 coupled secondary antibodies (Invitrogen, A32731, dil.1/1000), Alexa-fluor 647-Phalloidin (Invitrogen, A22287, dil.1/200) and DAPI (Thermo, #62248, dil.1/1000) were diluted in blocking buffer and incubated with the samples for 2 h at room temperature. After three final PBS washes, samples were conserved in 100 μL PBS in the dark, until measurement. Image acquisition was performed on the Operetta High-Content Imager (Perkin-Elmer). Fluorescence intensity of […] (GSPT1), Alexa-Fluor 647 (Actin) and DAPI (Nucleus) were measured. For the determination of GSPT1 DC50 values, a custom algorithm implemented in the PerkinElmer image analysis software Harmony-Acapella® was developed. After user-defined setting of adjustment parameters, the analysis was run identically without human intervention for all image fields. DAPI staining of the nuclei was used to determine the location of cells using standard nuclei detection modules. Segmentation artifacts were removed by threshold-based filters for area, roundness and intensity. The outline of the cells was determined analogously from the sum of the normalized, smoothed DAPI and Actin channel, starting from each nucleus. The Alexa-Fluor 488 (GSPT1) signal intensity in each cell was finally measured, in order to obtain a Mean intensity per cell. GSPT1 degradation (DC50) was calculated after normalization to controls and data import in CDD vault Database, using non-linear regression.
as §1

Sequence of CRBN-DDB1 (Q96SW2 whole entry): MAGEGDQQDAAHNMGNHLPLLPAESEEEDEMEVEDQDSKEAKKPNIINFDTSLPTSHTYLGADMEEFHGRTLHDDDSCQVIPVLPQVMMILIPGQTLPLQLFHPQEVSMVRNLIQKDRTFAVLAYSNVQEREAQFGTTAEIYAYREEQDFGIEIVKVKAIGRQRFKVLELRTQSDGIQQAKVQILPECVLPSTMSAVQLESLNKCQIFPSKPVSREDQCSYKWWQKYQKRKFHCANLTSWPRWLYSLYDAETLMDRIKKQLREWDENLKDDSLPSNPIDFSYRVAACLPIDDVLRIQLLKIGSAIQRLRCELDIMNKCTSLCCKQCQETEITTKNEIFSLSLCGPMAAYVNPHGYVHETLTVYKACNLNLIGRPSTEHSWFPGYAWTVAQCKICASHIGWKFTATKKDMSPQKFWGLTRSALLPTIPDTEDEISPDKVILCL
Sequence of CRBN-DDB1 (Q16531 whole entry partner): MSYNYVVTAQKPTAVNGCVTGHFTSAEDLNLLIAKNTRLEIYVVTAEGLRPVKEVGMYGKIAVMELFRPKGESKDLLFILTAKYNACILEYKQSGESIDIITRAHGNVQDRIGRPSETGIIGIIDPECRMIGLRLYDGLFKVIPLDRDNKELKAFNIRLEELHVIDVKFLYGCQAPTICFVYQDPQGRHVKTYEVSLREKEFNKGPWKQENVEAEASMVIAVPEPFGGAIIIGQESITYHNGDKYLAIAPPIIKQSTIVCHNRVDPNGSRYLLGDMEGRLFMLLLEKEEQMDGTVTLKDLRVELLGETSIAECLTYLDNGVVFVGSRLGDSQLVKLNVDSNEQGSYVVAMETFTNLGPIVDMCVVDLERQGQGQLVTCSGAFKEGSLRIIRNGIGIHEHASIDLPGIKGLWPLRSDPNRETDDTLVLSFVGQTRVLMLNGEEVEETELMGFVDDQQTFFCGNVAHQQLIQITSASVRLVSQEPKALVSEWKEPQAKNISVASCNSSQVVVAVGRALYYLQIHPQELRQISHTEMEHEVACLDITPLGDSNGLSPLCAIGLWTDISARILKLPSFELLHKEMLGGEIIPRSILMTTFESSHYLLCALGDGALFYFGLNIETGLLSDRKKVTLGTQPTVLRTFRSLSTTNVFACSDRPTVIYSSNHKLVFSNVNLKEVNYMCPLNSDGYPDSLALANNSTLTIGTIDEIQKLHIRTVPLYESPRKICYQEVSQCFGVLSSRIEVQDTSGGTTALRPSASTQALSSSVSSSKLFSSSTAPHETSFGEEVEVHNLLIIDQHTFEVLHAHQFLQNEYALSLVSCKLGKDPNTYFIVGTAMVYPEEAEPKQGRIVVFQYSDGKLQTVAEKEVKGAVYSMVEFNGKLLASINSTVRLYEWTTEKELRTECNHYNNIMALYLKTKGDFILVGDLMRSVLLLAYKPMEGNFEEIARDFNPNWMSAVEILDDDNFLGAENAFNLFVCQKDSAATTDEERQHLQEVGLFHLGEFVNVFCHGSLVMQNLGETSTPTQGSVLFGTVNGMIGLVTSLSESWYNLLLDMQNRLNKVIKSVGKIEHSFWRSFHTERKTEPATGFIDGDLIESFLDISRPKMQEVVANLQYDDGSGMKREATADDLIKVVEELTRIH
T1 sequence (P15170 whole entry): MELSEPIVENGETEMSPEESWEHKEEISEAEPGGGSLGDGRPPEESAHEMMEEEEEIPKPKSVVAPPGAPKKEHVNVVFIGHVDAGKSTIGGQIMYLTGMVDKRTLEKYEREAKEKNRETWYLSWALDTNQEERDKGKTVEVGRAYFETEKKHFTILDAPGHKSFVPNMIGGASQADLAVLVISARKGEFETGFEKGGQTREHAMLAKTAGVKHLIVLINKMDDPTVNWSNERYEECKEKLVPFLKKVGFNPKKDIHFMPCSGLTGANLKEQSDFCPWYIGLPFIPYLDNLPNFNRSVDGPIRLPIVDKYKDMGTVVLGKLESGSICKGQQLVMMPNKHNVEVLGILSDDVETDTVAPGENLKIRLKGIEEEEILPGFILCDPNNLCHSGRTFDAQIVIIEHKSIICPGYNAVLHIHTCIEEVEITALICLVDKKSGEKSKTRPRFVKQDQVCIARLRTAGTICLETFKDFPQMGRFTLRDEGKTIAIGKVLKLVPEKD
T1 sequence (Q96SW2 whole entry): as the sequence (Q96SW2 whole entry) above
T1 sequence (Q16531 2-1140 partner limits assumed): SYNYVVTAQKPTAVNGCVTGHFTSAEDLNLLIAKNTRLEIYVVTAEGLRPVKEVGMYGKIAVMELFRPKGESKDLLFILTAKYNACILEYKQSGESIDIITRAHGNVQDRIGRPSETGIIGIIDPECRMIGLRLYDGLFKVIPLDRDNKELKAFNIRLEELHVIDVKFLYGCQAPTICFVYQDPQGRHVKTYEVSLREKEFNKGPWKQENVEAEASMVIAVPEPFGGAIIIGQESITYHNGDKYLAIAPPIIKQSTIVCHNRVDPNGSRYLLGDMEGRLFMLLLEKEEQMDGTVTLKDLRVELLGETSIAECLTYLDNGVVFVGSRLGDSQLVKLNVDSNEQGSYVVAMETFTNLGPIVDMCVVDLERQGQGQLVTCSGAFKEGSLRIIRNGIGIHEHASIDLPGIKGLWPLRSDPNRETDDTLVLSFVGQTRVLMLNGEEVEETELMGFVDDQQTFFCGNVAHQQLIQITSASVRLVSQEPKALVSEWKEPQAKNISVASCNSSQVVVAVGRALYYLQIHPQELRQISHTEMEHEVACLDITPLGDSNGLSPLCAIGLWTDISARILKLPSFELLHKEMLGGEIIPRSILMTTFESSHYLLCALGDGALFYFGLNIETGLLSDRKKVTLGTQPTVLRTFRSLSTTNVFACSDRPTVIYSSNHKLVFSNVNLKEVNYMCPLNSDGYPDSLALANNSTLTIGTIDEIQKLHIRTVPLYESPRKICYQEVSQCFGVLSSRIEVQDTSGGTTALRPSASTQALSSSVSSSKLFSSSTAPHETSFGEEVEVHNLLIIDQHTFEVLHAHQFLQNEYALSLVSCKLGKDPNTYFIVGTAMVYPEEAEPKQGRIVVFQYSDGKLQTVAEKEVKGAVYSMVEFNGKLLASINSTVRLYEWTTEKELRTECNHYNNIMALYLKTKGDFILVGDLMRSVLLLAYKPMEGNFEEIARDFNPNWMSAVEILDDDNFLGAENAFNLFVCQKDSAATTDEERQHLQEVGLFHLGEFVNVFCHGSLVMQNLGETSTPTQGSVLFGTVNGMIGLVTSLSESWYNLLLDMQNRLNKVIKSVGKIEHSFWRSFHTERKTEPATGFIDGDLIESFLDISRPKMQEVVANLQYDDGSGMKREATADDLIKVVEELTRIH

Structure (SMILES) | IC50 (CRBN-DDB1) [nM] | DC50 (GSPT1) [nM]
Cc1cc(CC(=O)NC2CN(c3cc(F)c(C4CCC(=O)NC4=O)c(F)c3)C2)ccc1F (stereo not drawn) [Compound 30, N-(1-(4-(2,6-dioxopiperidin-3-yl)-3,5-difluorophenyl)azetidin-3-yl)-2-(4-fluoro-3-methylphenyl)acetamide] | 100 to 1000 | 30 to 300
O=C1CCC(c2c(F)cc(N3CC(NC(=O)Cc4cccc(Cl)c4)C3)cc2F)C(=O)N1 (stereo not drawn) [Compound 32, 2-(3-chlorophenyl)-N-(1-(4-(2,6-dioxo-3-piperidyl)-3,5-difluoro-phenyl)azetidin-3-yl)acetamide] | 100 to 1000 | 30 to 300
Cc1cc(CC(=O)NC2CN(c3ccc(C4CCC(=O)NC4=O)c(Cl)c3)C2)ccc1Cl (stereo not drawn) [Compound 33, 2-(4-chloro-3-methylphenyl)-N-(1-(3-chloro-4-(2,6-dioxopiperidin-3-yl)phenyl)azetidin-3-yl)acetamide] | 100 to 1000 | 30 to 300
O=C1CCC(c2c(F)cc(N3CC(NC(=O)Cc4ccc(Cl)cc4)C3)cc2F)C(=O)N1 (stereo not drawn) [Compound 36, 2-(4-chlorophenyl)-N-(1-(4-(2,6-dioxopiperidin-3-yl)-3,5-difluorophenyl)azetidin-3-yl)acetamide] | 100 to 1000 | > 300
N#Cc1ccc(CC(=O)NC2CN(c3cc(F)c(C4CCC(=O)NC4=O)c(F)c3)C2)c(F)c1 (stereo not drawn) [Compound 47, 2-(4-cyano-2-fluorophenyl)-N-(1-(4-(2,6-dioxopiperidin-3-yl)-3,5-difluorophenyl)azetidin-3-yl)acetamide] | 100 to 1000 | > 300
Cc1cc(C)nc(CC(=O)NC2CN(c3cc(F)c(C4CCC(=O)NC4=O)c(F)c3)C2)c1 (stereo not drawn) [Compound 51, 2-(4,6-dimethylpyridin-2-yl)-N-(1-(4-(2,6-dioxopiperidin-3-yl)-3,5-difluorophenyl)azetidin-3-yl) acetamide] | 100 to 1000 | > 300

Other lines, results leading:

IC50 (CRBN-DDB1) [nM] | DC50 (GSPT1) [nM] | Structure (SMILES)
100 to 1000 | 30 to 300 | O=C1CCC(c2c(F)cc(N3CC(NC(=O)Cc4ccc(Cl)cc4F)C3)cc2F)C(=O)N1 (stereo not drawn) [Compound 31, 2-(4-chloro-2-fluorophenyl)-N-(1-(4-(2,6-dioxopiperidin-3-yl)-3,5-difluorophenyl)azetidin-3-yl)acetamide]
> 1000 | < 30 | Cc1ccc(NC(=O)CC2CN(c3cc(F)c(C4CCC(=O)NC4=O)c(F)c3)C2)cc1Cl (stereo not drawn) [Compound 40, N-(3-chloro-4-methylphenyl)-2-(1-(4-(2,6-dioxopiperidin-3-yl)-3,5-difluorophenyl)azetidin-3-yl)acetamide]
< 100 | > 300 | N#Cc1ccc(CC(=O)NC2CN(c3cc(F)c(C4CCC(=O)NC4=O)c(F)c3)C2)cc1Cl (stereo not drawn) [Compound 48, 2-(3-chloro-4-cyanophenyl)-N-(1-(4-(2,6-dioxopiperidin-3-yl)-3,5-difluorophenyl)azetidin-3-yl)acetamide]
100 to 1000 | > 300 | Cc1cc(CC(=O)NC2CN(c3cc(F)c(C4CCC(=O)NC4=O)c(F)c3)C2)cc(C)n1 (stereo not drawn) [Compound 49, 2-(2,6-dimethylpyridin-4-yl)-N-(1-(4-(2,6-dioxopiperidin-3-yl)-3,5-difluorophenyl)azetidin-3-yl)acetamide]
100 to 1000 | > 300 | Cc1cc(C)cc(C(F)(F)C(=O)NC2CN(c3cc(F)c(C4CCC(=O)NC4=O)c(F)c3)C2)c1 (stereo not drawn) [Compound 50, 2-(3,5-dimethylphenyl)-N-(1-(4-(2,6-dioxopiperidin-3-yl)-3,5-difluorophenyl)azetidin-3-yl)-2,2-difluoroacetamide]
100 to 1000 | 30 to 300 | Cc1cc(Cl)ccc1CC(=O)NC1CN(c2cc(F)c(C3CCC(=O)NC3=O)c(F)c2)C1 (stereo not drawn) [Compound 52, 2-(4-chloro-2-methylphenyl)-N-(1-(4-(2,6-dioxopiperidin-3-yl)-3,5-difluorophenyl)azetidin-3-yl)acetamide]
